# Test results taken from paper PMC11005379, “Control of three-carbon amino acid homeostasis by promiscuous importers and exporters in Bacillus subtilis: role of the “sleeping beauty” amino acid exporters” (mBio, 2024).
# Legend:
# Assay type in all cases: cell-based
# AexA (YdeD) = target: T1, AexA (YdeD) (Bacillus subtilis, UniProt P96661); test: intracellular accumulation of radiolabelled substrate, overexpressing against deletion strain; conditions: labelled compound; 30 mM beta-alanine; C-Glc minimal medium; export; intact cells
# T1 construct: native full-length EamA family exporter in intact B. subtilis cells; chromosomal gene overexpressed by aerA Y179D (GP4117) against aerA Y179D deltaaexA (GP3958)
# T1 sequence (P96661 1-319): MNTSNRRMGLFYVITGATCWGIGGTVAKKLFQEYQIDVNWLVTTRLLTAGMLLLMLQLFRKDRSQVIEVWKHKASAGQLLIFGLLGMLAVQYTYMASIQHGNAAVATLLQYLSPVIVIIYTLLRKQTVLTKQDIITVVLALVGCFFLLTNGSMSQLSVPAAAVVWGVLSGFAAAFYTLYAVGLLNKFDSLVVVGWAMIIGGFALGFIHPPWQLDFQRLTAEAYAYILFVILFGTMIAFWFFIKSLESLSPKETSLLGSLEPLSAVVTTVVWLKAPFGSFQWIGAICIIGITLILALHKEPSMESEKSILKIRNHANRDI
# AlaP = target: T2, AlaP (Bacillus subtilis, UniProt O34618); test: radiolabelled substrate uptake, wild type against deletion strain; conditions: labelled compound, 30 mM beta-alanine, C-Glc minimal medium, intact cells
# T2 construct: gene ytnA; native full-length APC superfamily permease in intact B. subtilis cells
# T2 sequence (O34618 1-463): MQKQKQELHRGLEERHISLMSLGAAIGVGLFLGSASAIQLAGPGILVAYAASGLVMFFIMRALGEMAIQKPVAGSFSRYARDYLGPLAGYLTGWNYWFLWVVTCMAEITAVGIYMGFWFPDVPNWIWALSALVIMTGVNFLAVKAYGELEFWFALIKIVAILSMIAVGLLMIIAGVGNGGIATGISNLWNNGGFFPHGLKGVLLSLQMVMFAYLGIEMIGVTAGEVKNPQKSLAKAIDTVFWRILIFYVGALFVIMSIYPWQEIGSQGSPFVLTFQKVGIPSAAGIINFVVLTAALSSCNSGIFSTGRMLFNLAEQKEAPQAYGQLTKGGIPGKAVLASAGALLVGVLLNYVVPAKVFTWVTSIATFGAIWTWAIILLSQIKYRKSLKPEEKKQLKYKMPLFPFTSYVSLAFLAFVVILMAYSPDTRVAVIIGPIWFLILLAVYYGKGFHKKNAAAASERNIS
# AimA = target: T3, AimA (Bacillus subtilis, UniProt Q45577); test: as above; conditions: labelled compound, 30 mM beta-alanine, C-Glc minimal medium, intact cells
# T3 construct: native full-length APC superfamily permease in intact B. subtilis cells; wild type 168 against deltaaimA (GP3590)
# T3 sequence (Q45577 1-539): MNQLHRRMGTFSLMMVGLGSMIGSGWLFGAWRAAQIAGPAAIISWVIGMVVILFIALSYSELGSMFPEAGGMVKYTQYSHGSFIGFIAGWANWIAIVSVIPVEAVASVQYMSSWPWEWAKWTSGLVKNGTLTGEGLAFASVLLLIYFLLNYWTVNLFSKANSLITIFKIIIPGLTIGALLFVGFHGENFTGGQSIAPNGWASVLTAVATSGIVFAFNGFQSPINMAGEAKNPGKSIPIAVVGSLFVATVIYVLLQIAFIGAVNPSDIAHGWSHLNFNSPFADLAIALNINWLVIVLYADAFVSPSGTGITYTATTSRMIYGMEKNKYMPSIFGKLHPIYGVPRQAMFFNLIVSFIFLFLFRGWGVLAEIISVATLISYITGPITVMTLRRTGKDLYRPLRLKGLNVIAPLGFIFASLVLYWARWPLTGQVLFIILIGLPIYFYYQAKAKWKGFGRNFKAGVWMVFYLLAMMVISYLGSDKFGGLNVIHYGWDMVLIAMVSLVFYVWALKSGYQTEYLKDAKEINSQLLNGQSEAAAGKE
smiles,measurement,setting,value
NCCC(=O)O [β-alanine],"intracellular accumulation of radiolabelled substrate, overexpressing against de",AexA (YdeD),clearly demonstrates that AexA indeed acts as an exporter for β-alanine
same,"radiolabelled substrate uptake, wild type against deletion strain",AlaP,a severe reduction was observed in the alaP and aimA mutants
same,"radiolabelled substrate uptake, wild type against deletion strain",AimA,a severe reduction was observed in the alaP and aimA mutants
